Experimental data from PMC3425833, “Synthesis, Urease Inhibition, Antioxidant, Antibacterial, and Molecular Docking Studies of 1,3,4-Oxadiazole Derivatives” (ISRN Pharmacology, 2012).
Converted amounts (≈) assume the structure as drawn. “Also recorded” adds a separate entry of the source. Where two headings read alike, the source gives them in different places.

What was measured:
Jack bean urease = Jack bean urease (Canavalia ensiformis, UniProt P07374); assay: biochemical; assay type: biochemical; conditions: for Urease inhibitory activity in words: qualitative statement
Jack bean urease, sequence (P07374 whole entry, looked up): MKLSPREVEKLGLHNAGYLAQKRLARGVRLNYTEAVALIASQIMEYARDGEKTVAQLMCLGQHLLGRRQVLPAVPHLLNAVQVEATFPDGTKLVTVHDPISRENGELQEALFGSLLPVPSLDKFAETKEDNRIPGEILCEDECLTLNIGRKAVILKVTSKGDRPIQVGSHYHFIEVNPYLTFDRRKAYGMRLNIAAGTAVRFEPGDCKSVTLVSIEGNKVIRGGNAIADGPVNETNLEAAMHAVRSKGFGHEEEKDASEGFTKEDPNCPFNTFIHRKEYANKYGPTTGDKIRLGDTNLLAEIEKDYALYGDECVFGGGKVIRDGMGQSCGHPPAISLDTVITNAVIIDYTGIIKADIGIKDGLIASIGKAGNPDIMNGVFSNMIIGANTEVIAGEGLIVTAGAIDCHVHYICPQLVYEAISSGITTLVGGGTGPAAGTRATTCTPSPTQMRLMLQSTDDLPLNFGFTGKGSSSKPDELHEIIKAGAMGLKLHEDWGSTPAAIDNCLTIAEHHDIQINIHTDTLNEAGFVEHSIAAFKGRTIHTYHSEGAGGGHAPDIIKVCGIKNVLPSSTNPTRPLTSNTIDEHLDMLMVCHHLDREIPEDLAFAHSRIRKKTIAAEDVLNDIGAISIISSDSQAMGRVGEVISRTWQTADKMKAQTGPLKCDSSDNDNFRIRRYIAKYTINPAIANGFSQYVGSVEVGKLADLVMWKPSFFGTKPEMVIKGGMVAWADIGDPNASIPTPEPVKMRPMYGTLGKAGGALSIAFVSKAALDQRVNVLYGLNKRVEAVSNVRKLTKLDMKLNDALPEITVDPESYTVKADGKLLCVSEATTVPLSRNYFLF

Bacillus subtilis = assay: Antibacterial activity, serial tube dilution MIC; assay type: cell-based; conditions: for MIC: Bacillus subtilis, read-out: MIC B. subtilus
Procedure: (§1) The antibacterial activity data is represented in Table 2. […] Ciprofloxacin was used as standard drug. The compounds were found active against bacterial strains (2 Gram positive bacteria, namely, Staphylococcus aureus, Bacillus subtilis, and 2 Gram negative bacteria namely Escherichia coli, Shigella flexneri) in variable concentration. The antibacterial activities of 1,3,4-oxadiazole derivatives were evaluated in vitro by serial tube dilution method. The compounds and standard drug ciprofloxacin were dissolved in N,N-dimethylformamide (DMF) to give a concentration of 5 μg/mL (stock solution). Necessary apparatus and test tubes set of capacity 5 mL was washed cleaned and completely dried. For the bacterial culture double strength nutrient broth was used. The culture media was made by dissolving 15 g of nutrient broth in 1 L of distilled water. Approximately, 1 mL of culture media was prepared and transferred to each test tube by micropipette and capped with non-adsorbent cotton plugs. The test tubes containing 1 mL culture media was sterilized in an autoclave at 121°C for 20 min at 15 psi pressure. Sub-culturing of bacteria was done by transferring a loopful of particular bacterial strain from standard bacterial agar to 10 mL sterilized nutrient broth aseptically in a laminar air flow cabinet. It was then incubated for a period of 24 h at 37°C in a B. O. D. incubator. Bacterial strain suspension was prepared, after 24 h incubation, by aseptically inoculating 0.2 mL of revived bacterial colony into 100 mL of 0.9% m/v saline. A series of 5 assay tubes for a single derivative against each bacterial strain was employed. A stock solution of each test derivative at concentration 5 μg/mL (containing 1 mL nutrient broth) was serially diluted to achieve concentrations of 2.5, 1.25, 0.625, 0.313, and 0.156 μg/mL. Then, 0.1 mL of normal saline suspension of revived bacteria was added to each test tube. The inoculated tubes were incubated at 37°C for 24 h. The MIC (minimum inhibitory concentration) values were determined by subsequently checking for the absence of visual turbidity.

Escherichia coli = assay: Antibacterial activity, serial tube dilution MIC; assay type: cell-based; conditions: for MIC: Escherichia coli, 24 h, read-out: MIC E. coli; for Antibacterial activity against E. coli compared to standard ciprofloxacin: in words
Procedure: as §1

Shigella flexneri = assay: Antibacterial activity, serial tube dilution MIC; assay type: cell-based; conditions: for MIC: Shigella flexneri, read-out: MIC S. flexneri; for Antibacterial activity against S. flexneri compared to standard ciprofloxacin: in words
Procedure: as §1

Staphylococcus aureus = assay: Antibacterial activity, serial tube dilution MIC; assay type: cell-based; conditions: for MIC: Staphylococcus aureus, read-out: MIC S. aureus; for Antibacterial activity against S. aureus compared to standard ciprofloxacin: in words
Procedure: as §1

[1] = DPPH radical scavenging (antioxidant) assay; conditions: for IC50: DPPH 300 μM, half an hour at 37°C; for DPPH radical scavenging activity compared to standard propyl gallate: in words
Procedure: The free radical scavenging capacity of the compounds was measured by 1,1-diphenyl-2-picrylhydrazyl. Test compounds were allowed to react with stable free radical, 1,1-diphenyl-2-picrylhydrazyl radical (DPPH) for half an hour at 37°C. The concentration of DPPH was kept as 300 μM. The test samples were dissolved in DMSO while the DPPH solution was prepared in ethanol. After incubation, decrease in absorption was measured at 515 nm using microplate reader. Percent radical scavenging activity of samples was determined in comparison with a DMSO treated as control. Propyl gallate and 3-tert-Butyl-4-hydroxyanisole were used as standards.

[2] = average of three readings, 24 h at 37°C

SMILES	IC50 (Jack bean urease) [µM]	Urease inhibitory activity relative to the standard (thiourea) (Jack bean urease; more active than the standard) [fold]	MIC (Bacillus subtilis; [2]) [µg/mL]	MIC (Escherichia coli; [2]) [µg/mL]	MIC (Shigella flexneri; [2]) [µg/mL]	Antibacterial activity against S. flexneri compared to standard ciprofloxacin (Shigella flexneri)	MIC (Staphylococcus aureus; [2]) [µg/mL]	IC50 [1] [µM]	Antibacterial activity against E. coli compared to standard ciprofloxacin (Escherichia coli)	Antibacterial activity against B. subtilus relative to ciprofloxacin (Bacillus subtilis) [fold]	MIC (Bacillus subtilis; 24 h) [µg/mL]	DPPH radical scavenging activity compared to standard propyl gallate [1]	MIC (Shigella flexneri; 24 h) [µg/mL]	Antibacterial activity against S. aureus compared to standard ciprofloxacin (Staphylococcus aureus)	Urease inhibitory activity in words (Jack bean urease)	inhibition at 100 µM (Jack bean urease; read-out: % inhibition of Jack bean urease) [%]	MIC (Staphylococcus aureus; 24 h) [µg/mL]	MIC (Escherichia coli) [µg/mL]	IC50 (Jack bean urease; triplicate, thiourea standard, read-out: IC50 ± SEM, inhibitory activity against Jack bean urease) [µM]
S=c1[nH]nc(Cc2ccc(Cl)cc2)o1 [Compound 4j, 5-(4-Chlorobenzyl)-1,3,4-oxadiazole-2(3H)-thione]	1.15 ± 0.2	20	1.25 (≈ 5.51 µM)	0.313 (≈ 1.38 µM)	0.156 (≈ 0.688 µM)	two-fold activities	0.313 (≈ 1.38 µM)	51.6 ± 2.1	–	–	–	–	–	–	–	–	–	–	–
COc1ccc(CCc2n[nH]c(=S)o2)cc1 [Compound 4g, 5-(4-Methoxyphenethyl)-1,3,4-oxadiazole-2(3H)-thione]	5.61 ± 0.3	–	0.625 (≈ 2.64 µM)	0.156 (≈ 0.66 µM)	0.313 (≈ 1.32 µM)	equipotent activity	2.5 (≈ 10.6 µM)	50.8 ± 2.1	equipotent	–	–	–	–	–	–	–	–	–	–
S=c1[nH]nc(Cc2ccc(Br)cc2)o1 [Compound 4c, 5-(4-Bromobenzyl)-1,3,4-oxadiazole-2(3H)-thione]	11.8 ± 0.4	–	–	2.5 (≈ 9.22 µM)	0.156 (≈ 0.575 µM)	two-fold activities	0.625 (≈ 2.31 µM)	38 ± 4.1	considerably less active	4	0.156 (≈ 0.575 µM)	more effective	–	–	–	–	–	–	–
O=C(O)c1cn(C2CC2)c2cc(N3CCNCC3)c(F)cc2c1=O [Ciprofloxacin, reference compound]	–	–	0.625 (≈ 1.89 µM)	0.156 (≈ 0.471 µM)	–	–	0.156 (≈ 0.471 µM)	–	–	–	–	–	0.31 (≈ 0.936 µM)	–	–	–	–	–	–
Fc1ccccc1Cc1n[nH]c(=S)o1 [Compound 4f, 5-(2-Fluorobenzyl)-1,3,4-oxadiazole-2(3H)-thione]	3.27 ± 0.3	–	0.156 (≈ 0.742 µM)	0.313 (≈ 1.49 µM)	1.25 (≈ 5.95 µM)	–	0.156 (≈ 0.742 µM)	46.6 ± 4.6	–	4	–	–	–	equipotent activity	–	–	–	–	–
CCCOC(=O)c1cc(O)c(O)c(O)c1 [Propyl gallate, reference compound]	–	–	–	–	–	–	–	40.8 ± 1.2	–	–	–	–	–	–	–	–	–	–	–
Fc1cc(Cl)ccc1-c1n[nH]c(=S)o1 [Compound 4r, 5-(4-Chloro-2-fluorophenyl)-1,3,4-oxadiazole-2(3H)-thione]	–	–	–	–	0.313 (≈ 1.36 µM)	equipotent activity	0.156 (≈ 0.676 µM)	10.8 ± 0.2	equipotent; also recorded: considerably less active	–	0.313 (≈ 1.36 µM)	four-fold	–	equipotent activity	weak inhibitory activities	39	–	–	–
S=c1[nH]nc(Cc2ccc(Cl)c(Cl)c2)o1 [Compound 4e, 5-(3,4-Dichlorobenzyl)-1,3,4-oxadiazole-2(3H)-thione]	11.3 ± 0.6	–	0.625 (≈ 2.39 µM)	0.156 (≈ 0.597 µM)	0.313 (≈ 1.2 µM)	equipotent activity	–	59 ± 6.3	equipotent	–	–	–	–	–	–	–	0.313 (≈ 1.2 µM)	–	–
S=c1[nH]nc(Cc2ccc(Cl)cc2Cl)o1 [Compound 4h, 5-(2,4-Dichlorobenzyl)-1,3,4-oxadiazole-2(3H)-thione]	42.4 ± 1.2	–	–	1.25 (≈ 4.79 µM)	0.156 (≈ 0.597 µM)	two-fold activities	0.625 (≈ 2.39 µM)	57.8 ± 1.8	considerably less active	4	0.156 (≈ 0.597 µM)	–	–	–	weak inhibitory activities	–	–	–	–
COc1ccc(Cc2n[nH]c(=S)o2)cc1 [Compound 4l, 5-(4-Methoxybenzyl)-1,3,4-oxadiazole-2(3H)-thione]	5.83 ± 0.08	–	2.5 (≈ 11.2 µM)	0.313 (≈ 1.41 µM)	0.156 (≈ 0.702 µM)	two-fold activities	0.625 (≈ 2.81 µM)	88.2 ± 4.1	–	–	–	–	–	–	–	–	–	–	–
COc1ccc(O)c(C(C)(C)C)c1 [3-tert-Butyl-4-hydroxyanisole, reference compound]	–	–	–	–	–	–	–	28.2 ± 1.1	–	–	–	–	–	–	–	–	–	–	–
COc1ccccc1CCc1n[nH]c(=S)o1 [Compound 4i, 5-(2-Methoxyphenethyl)-1,3,4-oxadiazole-2(3H)-thione]	6.22 ± 0.4	–	0.625 (≈ 2.64 µM)	0.156 (≈ 0.66 µM)	0.313 (≈ 1.32 µM)	equipotent activity	–	40.2 ± 3.3	equipotent	–	–	Equipotent	–	–	–	–	0.313 (≈ 1.32 µM)	–	–
S=c1[nH]nc(-c2cc3ccccc3[nH]2)o1 [Compound 4b, 5-(1H-Indol-2-yl)-1,3,4-oxadiazole-2(3H)-thione]	21.3 ± 0.7	–	–	0.625 (≈ 2.88 µM)	0.313 (≈ 1.44 µM)	equipotent activity	0.156 (≈ 0.718 µM)	107 ± 3.4	–	–	0.313 (≈ 1.44 µM)	–	–	equipotent activity	nearly same activity	–	–	–	–
COc1cccc(Cc2n[nH]c(=S)o2)c1 [Compound 4n, 5-(3-Methoxybenzyl)-1,3,4-oxadiazole-2(3H)-thione]	12.2 ± 0.05	–	–	0.625 (≈ 2.81 µM)	0.156 (≈ 0.702 µM)	two-fold activities	–	60.3 ± 4.3	–	4	0.156 (≈ 0.702 µM)	–	–	equipotent activity	–	–	0.156 (≈ 0.702 µM)	–	–
S=c1[nH]nc(Cc2ccccc2Cl)o1 [Compound 4k, 5-(2-Chlorobenzyl)-1,3,4-oxadiazole-2(3H)-thione]	12.9 ± 0.6	–	0.313 (≈ 1.38 µM)	–	0.156 (≈ 0.688 µM)	two-fold activities	–	34.4 ± 3.2	equipotent	–	–	more effective	–	equipotent activity	–	–	0.156 (≈ 0.688 µM)	0.156 (≈ 0.688 µM)	–
COc1cccc(CCc2n[nH]c(=S)o2)c1 [Compound 4o, 5-(3-Methoxyphenethyl)-1,3,4-oxadiazole-2(3H)-thione]	15.1 ± 0.8	–	0.625 (≈ 2.64 µM)	0.313 (≈ 1.32 µM)	0.156 (≈ 0.66 µM)	two-fold activities	2.5 (≈ 10.6 µM)	43.6 ± 3.1	–	–	–	–	–	–	–	–	–	–	–
COc1ccccc1Cc1n[nH]c(=S)o1 [Compound 4m, 5-(2-Methoxybenzyl)-1,3,4-oxadiazole-2(3H)-thione]	5.6 ± 0.6	–	0.156 (≈ 0.702 µM)	0.625 (≈ 2.81 µM)	0.313 (≈ 1.41 µM)	equipotent activity	1.25 (≈ 5.62 µM)	42.7 ± 3.7	–	4	–	–	–	–	–	–	–	–	–
NC(N)=S [Thiourea, reference compound]	–	–	–	–	–	–	–	–	–	–	–	–	–	–	–	–	–	–	22.3 ± 1.2
COc1ccc(-c2n[nH]c(=S)o2)c(OC)c1OC [Compound 4a, 5-(2,3,4-Trimethoxyphenyl)-1,3,4-oxadiazole-2(3H)-thione]	5.79 ± 0.3	–	0.156 (≈ 0.581 µM)	–	0.313 (≈ 1.17 µM)	equipotent activity	1.25 (≈ 4.66 µM)	123 ± 5.1	–	4	–	–	–	–	–	–	–	0.313 (≈ 1.17 µM)	–
